# Columns and labels:
# [1] = tested on: MDA-MB-231, SKOV-3, HeLa, SW-620 and HCT-116 cell lines; assay: MTT cell viability assay, 72 h; assay type: cell-based, human; settings: for inhibition of cell viability: 0-25 μM concentration range, dose-response relationship; for IC50 compared with oxaliplatin: human cancer cell lines
# Method: FIGS. 7A-7F show MTT assay results for some exemplary compounds disclosed herein. Graphical representation of MTT assay for the activity of exemplary compounds examined on various human cancer cell lines. […] The IC50 values of compound/oxaliplatin tested in cell-lines are mentioned alongside, in corresponding colors as the cell viability curve.
# Cell culture: Mammalian cells were grown in specific culture media, supplemented with 10% fetal bovine serum (FBS) and antibiotics in a humidified environment containing 5% CO2 at 37° C.
# Cell viability assay: The effects of supramolecular platinum conjugates on the viability of cancer cells were measured using MTT assay. Cells in 100 μl culture-media were plated in 96-well plates (3000-5000 cells/well) and allowed to adhere overnight in a humidified environment containing 5% CO2 at 37° C. Fresh media (100 μL) containing different concentrations of compounds were added to cells and incubated for 72 hours. Following incubation, cell viability was determined using the MTT assay. The MTT assay measures cell viability through assessment of active mitochondrial dehydrogenase, which converts MTT into water-insoluble purple formazan crystals. Cell viability was plotted as dose-response curves using curve fitting.
# The effects of exemplary compounds (compound 25, 26, 27, 28, 31, 48) were evaluated in vitro in comparison with oxaliplatin in breast cancer (MDA-MB-231), ovarian cancer (SKOV-3), cervical cancer (HeLa) and colorectal cancer (SW-620 and HCT-116) cell lines.
# MDA-MB-231 cells = assay: Cellular uptake of platinum compounds (AAS); assay type: cell-based; settings: 50 μM platinum equivalent, 5 hrs
# Method: Cells were incubated with 50 μM concentration of platinum compounds for 5 hours. The amount of platinum accumulated in cells was measured by AAS and expressed as ng of platinum accumulated per 10^5 cells.
# Cellular uptake of platinum compounds: MDA-MB-231 cells (1×10^6) were seeded in 2 ml media per well of a 6-well plate and grown for 24 hrs. Required volume of compounds was added to achieve a final concentration of 50 μM platinum equivalent per well. Cells were incubated for 5 hrs after adding the compounds, then washed twice with PBS, harvested by trypsinization, resuspended in PBS and counted. Cells were centrifuged and pellets stored at −80° C. until further processing. The cell pellets were digested with 100 μl nitric acid at 70° C. for 4 hours. Following digestion, the samples were diluted in 2% HCl and the quantity of accumulated platinum was determined using Atomic absorption spectroscopy (AAS). The assay was validated using a linear standard curve, generated from serial dilutions of certified stock platinum standard and cellular uptake of platinum was expressed as ng of platinum per 1×10^5 cells.
SMILES,inhibition of cell viability [1],IC50 compared with oxaliplatin [1],cellular uptake of platinum (MDA-MB-231 cells)
CC(C)CCC[C@@H](C)[C@H]1CCC2C3CC=C4C[C@@H](OCC[N+]5(CC(=O)[O-])CC(=O)[O][Pt]56[NH][C@@H]5CCCC[C@H]5[NH]6)CC[C@]4(C)C3CC[C@@]21C (some centres unmarked) [Compound 25],significant inhibition of cell viability,lower than oxaliplatin,–
CC(C)CCC[C@@H](C)[C@H]1CC[C@H]2[C@@H]3CC=C4C[C@@H](OC(=O)NCC[N+]5(CC(=O)[O-])CC(=O)[O][Pt]56[NH][C@@H]5CCCC[C@H]5[NH]6)CC[C@]4(C)[C@H]3CC[C@]12C (some centres unmarked) [Compound 26],significant inhibition of cell viability,lower than oxaliplatin,–
CC(C)CCC[C@@H](C)[C@H]1CC[C@H]2[C@@H]3CC=C4C[C@@H](OCCNC(=O)C[N+]5(CC(=O)[O-])CC(=O)[O][Pt]56[NH][C@@H]5CCCC[C@H]5[NH]6)CC[C@]4(C)[C@H]3CC[C@]12C (some centres unmarked) [Compound 27],significant inhibition of cell viability,lower than oxaliplatin,–
CC(C)CCC[C@@H](C)[C@H]1CC[C@H]2[C@@H]3CC=C4C[C@@H](OCCOCC[N+]5(CC(=O)[O-])CC(=O)[O][Pt]56[NH][C@@H]5CCCC[C@H]5[NH]6)CC[C@]4(C)[C@H]3CC[C@]12C (some centres unmarked) [Compound 28],significant inhibition of cell viability,lower than oxaliplatin,–
CC(C)CCC[C@@H](C)[C@H]1CC[C@H]2[C@@H]3CC=C4C[C@@H](OCCCC5=CC(=O)[O][Pt]6([NH][C@@H]7CCCC[C@H]7[NH]6)[O]5)CC[C@]4(C)[C@H]3CC[C@]12C [Compound 31],significant inhibition of cell viability,lower than oxaliplatin,–
O=C1[O][Pt]2([NH][C@@H]3CCCC[C@H]3[NH]2)[O]C1=O [oxaliplatin],–,–,similar
